Assays:
[1] = system: PANC08.13 (pancreatic cancer cell line); test: KRAS Cell Titer Glo (CTG) cell proliferation assay, PANC08.13; assay type: cell-based; conditions: Homo sapiens, PANC-08-13, 168 h; PANC08.13 cells, 7-day CTG, geomean IC50
Excerpt: (§1) The CellTiter-Glo® (CTG) Luminescent Cell Viability Assay is a homogeneous method of determining the number of viable cells in culture based on quantitation of the ATP present, an indicator of metabolically active cells. The CTG is designed for use with multi-well formats, making it ideal for automated high-throughput screening (HTS), cell proliferation and cytotoxicity assays. The homogeneous assay procedure involves adding the single reagent (CellTiter-Glo® Reagent) directly to cells cultured in serum-supplemented medium. Cell washing, removal of medium and multiple pipetting steps are not required. The system detects as few as 15 cells per well in a 384-well format in 10 minutes after adding reagent and mixing.
(§2) Cells are grown in humidified 5% CO2 incubator at 37° C. using the culture conditions outlined below. All cell culture media reagents were purchased from Gibco. Cell lines purchased from ATCC: H358 (non-small cell lung cancer cell line), SW620 (colorectal cancer cell line), PANC08.13 (RPM11640+10% FBS+10 units/mL Insulin, pancreatic cancer cell line). Test and control compounds are dispensed as nanoliter drops according to desired final concentrations in 0.1% DMSO using Echo Acoustic Dispenser onto 384 assay plates (Corning, Cat #3764) prior to cell seeding. Cells were seeded in 40 μL volume per well at the following cell densities (cells per well): H358 (300), SW620 (750), PANC 08.13 (600). Cells are incubated in the presence of compound for 7-days. Viability is determined on Day 7 using CellTiter-Glo® (CTG) Luminescent Cell Viability Assay (Promega). CTG is added to a […] per well and incubated at room temperature for 15 minutes before luminescence is captured using an EnVision Reader with LUM384 US protocol. Data is analyzed using Activity Base to determine compound response and will be represented either as a percent effect (PCTEFF) or percent control (PCTOCTL) as described: Zero percent effect control (ZPE) (Negative control)—100% DMSO. Hundred percent effect (HPE) (Positive control)—1 uM Trametinib (GSK1120212, MEK inhibitor) (4 nl of 10 mM and 36 nl of DMSO per well). The following equations/nomenclature are used (% Effect; PCTEFF) and (% of Control; PCTOCTL): PCTEFF: 100*(Raw_Data_Value−HPE/ZPE−HPE), PCTOCTL: 100*Raw_Data_Value/User_Defined_Array), where the User_Defined_Array is either summarized HPE or ZPE.
(§3) Cells with “nd” indicate compound not tested in that particular assay at time of writing. It is to be understood that the geomean IC50 data may change slightly over time with increasing repeat data (ie: increasing n #).

[2] = system: H358 (non-small cell lung cancer cell line); test: KRAS Cell Titer Glo (CTG) cell proliferation assay, H358; assay type: cell-based; conditions: Homo sapiens, NCI-H358, 168 h; H358 cells, 7-day CTG, geomean IC50
Excerpt: as §1, §2, §3

KRAS G12C = KRAS G12C (Homo sapiens (Human), UniProt P01116, G12C); test: SPR binding affinity and kinetics, GTPγS-loaded KRAS G12C; conditions: GTPγS loaded protein, geomean
Excerpt: (§4) No additional regeneration was used.
(§5) Compound dissociation was monitored for at least 3600 seconds. […] No additional regeneration was used.
(§6) The adequateness of the fit was judged by c2 values and the randomness of residue distribution.

KRAS G12D = KRAS G12D (Homo sapiens (Human), UniProt P01116, G12D); test: SPR binding affinity and kinetics, GTPγS-loaded KRAS G12D; conditions: GTPγS loaded protein, geomean
Excerpt: as §4, §5, §6

KRAS Wild Type = KRAS Wild Type (Homo sapiens (Human), UniProt P01116); test: SPR binding affinity and kinetics, GTPγS-loaded KRAS Wild Type; conditions: GTPγS loaded protein, geomean
Excerpt: as §4, §5, §6

KRAS G12V = KRAS G12V (Homo sapiens (Human), UniProt P01116, G12V); test: SPR binding affinity and kinetics, GTPγS-loaded KRAS G12V; conditions: GTPγS loaded protein, geomean
Excerpt: as §4, §5, §6

[3] = system: SW620 (colorectal cancer cell line); test: KRAS Cell Titer Glo (CTG) cell proliferation assay, SW620; assay type: cell-based; conditions: Homo sapiens, SW-620, 168 h; SW620 cells, 7-day CTG, geomean IC50
Excerpt: as §1, §2, §3

KRAS G12D, sequence (P01116 other isoform, or with tags, fused parts or gaps G12D): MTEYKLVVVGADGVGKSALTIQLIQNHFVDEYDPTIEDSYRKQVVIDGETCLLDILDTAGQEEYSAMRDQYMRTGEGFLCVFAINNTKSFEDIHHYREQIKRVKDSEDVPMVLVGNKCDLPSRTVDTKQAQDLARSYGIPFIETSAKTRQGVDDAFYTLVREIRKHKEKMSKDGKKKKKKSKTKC
KRAS G12C, sequence (P01116 other isoform, or with tags, fused parts or gaps G12C): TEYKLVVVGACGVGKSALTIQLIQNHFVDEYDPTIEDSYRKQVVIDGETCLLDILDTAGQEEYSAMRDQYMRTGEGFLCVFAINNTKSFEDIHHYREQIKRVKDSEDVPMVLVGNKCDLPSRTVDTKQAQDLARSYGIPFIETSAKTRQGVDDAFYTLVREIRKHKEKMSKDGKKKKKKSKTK
KRAS Wild Type, sequence (P01116 other isoform, or with tags, fused parts or gaps): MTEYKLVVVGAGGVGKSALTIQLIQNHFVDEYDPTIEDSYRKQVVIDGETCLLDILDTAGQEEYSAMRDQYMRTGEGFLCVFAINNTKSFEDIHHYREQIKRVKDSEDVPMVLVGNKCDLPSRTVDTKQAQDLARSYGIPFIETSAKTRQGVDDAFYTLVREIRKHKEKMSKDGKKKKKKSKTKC
KRAS G12V, sequence (P01116 other isoform, or with tags, fused parts or gaps G12V): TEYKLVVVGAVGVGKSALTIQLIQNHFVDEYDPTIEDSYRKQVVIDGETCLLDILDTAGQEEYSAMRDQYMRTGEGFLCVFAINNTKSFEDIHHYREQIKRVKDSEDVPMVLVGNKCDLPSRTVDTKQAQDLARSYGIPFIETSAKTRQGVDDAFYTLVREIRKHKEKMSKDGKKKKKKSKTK

With `F/C=C1/CN2CCC[C@@]2(COc2nc3c4c(nc(-c5c(C6CC6)c(Cl)cc6[nH]ncc56)c(F)c4n2)OC[C@@H]2COCCCN32)C1` [Example 15, (8aS)-5-(6-chloro-5-cyclopropyl-1H-indazol-4-yl)-4-fluoro-2-{[(2E,7aS)-2-(fluoromethylidene)tetrahydro-1H-pyrrolizin-7a(5H)-yl]methoxy}-8a,9,12,13-tetrahydro-8H,11H-7,10-dioxa-1,3,6,13a-tetraazanaphtho[1,8-ab]heptalene] the IC50 [1] was 3 nM, the IC50 [2] was 30 nM and the Kd (KRAS G12C) was 5 nM. The Kd (KRAS G12D) was 2 nM, the Kd (KRAS Wild Type) was 4 nM and the Kd (KRAS G12V) was 4 nM. It also gave an IC50 [3] of 31 nM.

In the case of `C=C1CN2CCC[C@@]2(COc2nc3c4c(nc(-c5cccc6[nH]ncc56)c(F)c4n2)OC[C@@H]2COCCCN32)C1` [Example 34, (8aS)-4-fluoro-5-(1H-indazol-4-yl)-2-{[(7aS)-2-methylidenetetrahydro-1H-pyrrolizin-7a(5H)-yl]methoxy}-8a,9,12,13-tetrahydro-8H,11H-7,10-dioxa-1,3,6,13a-tetraazanaphtho[1,8-ab]heptalene], the IC50 [1] is reported as 9350 nM, the IC50 [2] is reported as over 9990 nM and the Kd (KRAS G12C) is reported as over 10000 nM. It also gave a Kd (KRAS G12D) of over 10000 nM, a Kd (KRAS Wild Type) of over 10000 nM and a Kd (KRAS G12V) of over 10000 nM. It also gave an IC50 [3] of over 9990 nM.

Molecule `Fc1c(-c2c(C3CC3)c(Cl)cc3[nH]ncc23)nc2c3c(nc(OC[C@@]45C[C@@H](F)CN4CC4(CC4)C5)nc13)N1CCCOC[C@H]1CO2` [Example 35, (8aS)-2-{[(6′R,7′aR)-6′-fluorodihydro-1′H,3′H-spiro[cyclopropane-1,2′-pyrrolizin]-7′a(5′H)-yl]methoxy}-5-(6-chloro-5-cyclopropyl-1H-indazol-4-yl)-4-fluoro-8a,9,12,13-tetrahydro-8H,11H-7,10-dioxa-1,3,6,13a-tetraazanaphtho[1,8-ab]heptalene] has an IC50 [1] of 10 nM, an IC50 [2] of 126 nM and a Kd (KRAS G12C) of 12 nM. The Kd (KRAS G12D) was 8 nM, the Kd (KRAS Wild Type) was 11 nM and the Kd (KRAS G12V) was 12 nM. The IC50 [3] was 49 nM.

`Fc1c(-c2c(C3CC3)c(Cl)cc3[nH]ncc23)nc2c3c(nc(OC[C@@]45CCCN4CC4(CC4)C5)nc13)N1CCCOC[C@H]1CO2` [Example 18, (8aS)-2-{[(7′aS)-dihydro-1′H,3′H-spiro[cyclopropane-1,2′-pyrrolizin]-7′a(5′H)-yl]methoxy}-5-(6-chloro-5-cyclopropyl-1H-indazol-4-yl)-4-fluoro-8a,9,12,13-tetrahydro-8H,11H-7,10-dioxa-1,3,6,13a-tetraazanaphtho[1,8-ab]heptalene] gave an IC50 [1] of 68 nM, an IC50 [2] of 304 nM and a Kd (KRAS G12C) of 64 nM. The Kd (KRAS G12D) was 34 nM, the Kd (KRAS Wild Type) was 61 nM and the Kd (KRAS G12V) was 61 nM. The IC50 [3] was 479 nM.

`C=C1CN2CCC[C@@]2(COc2nc3c4c(nc(-c5c6c(cc7[nH]ncc57)CCCC6)c(F)c4n2)OC[C@@H]2COCCCN32)C1` [Example 50, (8aS)-4-fluoro-2-{[(7aS)-2-methylidenetetrahydro-1H-pyrrolizin-7a(5H)-yl]methoxy}-5-(5,6,7,8-tetrahydro-1H-benzo[f]indazol-4-yl)-8a,9,12,13-tetrahydro-8H,11H-7,10-dioxa-1,3,6,13a-tetraazanaphtho[1,8-ab]heptalene] showed an IC50 [1] of 105 nM, an IC50 [2] of 206 nM and a Kd (KRAS G12C) of 47 nM. For the same molecule, the Kd (KRAS G12D) was 31 nM, the Kd (KRAS Wild Type) was 53 nM and the Kd (KRAS G12V) was 42 nM. It also gave an IC50 [3] of 75 nM.

`C=C1CN2C[C@H](O)C[C@@]2(COc2nc3c4c(nc(-c5c(C6CC6)c(Cl)cc6[nH]ncc56)c(F)c4n2)OC[C@@H]2COCCCN32)C1` [Example 25, (2R,7aR)-7a-({[(8aS)-5-(6-chloro-5-cyclopropyl-1H-indazol-4-yl)-4-fluoro-8a,9,12,13-tetrahydro-8H,11H-7,10-dioxa-1,3,6,13a-tetraazanaphtho[1,8-ab]heptalen-2-yl]oxy}methyl)-6-methylidenehexahydro-1H-pyrrolizin-2-ol] was tested, and the IC50 [1] was 13 nM, the IC50 [2] was 41 nM and the Kd (KRAS G12C) was 2 nM. It also gave a Kd (KRAS G12D) of 3 nM, a Kd (KRAS Wild Type) of 4 nM and a Kd (KRAS G12V) of 2 nM. It also gave an IC50 [3] of 22 nM.

Work on `CN(C)C(=O)/C=C1\CN2CCC[C@@]2(COc2nc3c4c(nc(-c5c(C6CC6)c(Cl)cc6[nH]ncc56)c(F)c4n2)OC[C@@H]2COCCCN32)C1` [Example 43, (2Z)-2-[(7aS)-7a-({[(8aS)-5-(6-chloro-5-cyclopropyl-1H-indazol-4-yl)-4-fluoro-8a,9,12,13-tetrahydro-8H,11H-7,10-dioxa-1,3,6,13a-tetraazanaphtho[1,8-ab]heptalen-2-yl]oxy}methyl)tetrahydro-1H-pyrrolizin-2(3H)-ylidene]-N,N-dimethylacetamide] yielded an IC50 [1] of 5510 nM, an IC50 [2] of over 9990 nM and a Kd (KRAS G12C) of 539 nM. For the same molecule, the Kd (KRAS G12D) was 493 nM, the Kd (KRAS Wild Type) was 742 nM and the Kd (KRAS G12V) was 677 nM. For the same molecule, the IC50 [3] was over 9990 nM.

`COC/C=C1\CN2CCC[C@@]2(COc2nc3c4c(nc(-c5c6c(cc7[nH]ncc57)CCC[C@H]6OC)c(F)c4n2)OC[C@@H]2COCCCN32)C1` (relative stereo) [Example 59, (8aS)-4-fluoro-2-{[(2Z,7aS)-2-(2-methoxyethylidenetetrahydro-1H-pyrrolizin-7a(5H)-yl]methoxy}-5-[(5R*)-5-methoxy-5,6,7,8-tetrahydro-1H-benzo[f]indazol-4-yl]-8a,9,12,13-tetrahydro-8H,11H-7,10-dioxa-1,3,6,13a-tetraazanaphtho[1,8-ab]heptalene] was tested, and the Kd (KRAS G12C) was over 1000 nM, the Kd (KRAS G12D) was over 1000 nM and the Kd (KRAS Wild Type) was over 1000 nM. It also gave a Kd (KRAS G12V) of over 1000 nM.

Work on `COC/C=C1/CN2CCC[C@@]2(COc2nc3c4c(nc(-c5c(C6CC6)c(Cl)cc6[nH]ncc56)c(F)c4n2)OC[C@@H]2COCCCN32)C1` (relative stereo) [Example 49, (8aS)-5-(6-chloro-5-cyclopropyl-1H-indazol-4-yl)-4-fluoro-2-{[(2E,7aR*)-2-(2-methoxyethylidene)tetrahydro-1H-pyrrolizin-7a(5H)-yl]methoxy}-8a,9,12,13-tetrahydro-8H,11H-7,10-dioxa-1,3,6,13a-tetraazanaphtho[1,8-ab]heptalene] yielded a Kd (KRAS G12C) of 73 nM, a Kd (KRAS G12D) of 41 nM and a Kd (KRAS Wild Type) of 63 nM. For the same molecule, the Kd (KRAS G12V) was 58 nM.

`COC/C=C1/CN2CCC[C@@]2(COc2nc3c4c(nc(-c5c(C6CC6)c(Cl)cc6[nH]ncc56)c(F)c4n2)OC[C@@H]2COCCCN32)C1` (relative stereo) [Example 48, (8aS)-5-(6-chloro-5-cyclopropyl-1H-indazol-4-yl)-4-fluoro-2-{[(2E,7aS*)-2-(2-methoxyethylidene)tetrahydro-1H-pyrrolizin-7a(5H)-yl]methoxy}-8a,9,12,13-tetrahydro-8H,11H-7,10-dioxa-1,3,6,13a-tetraazanaphtho[1,8-ab]heptalene] gave a Kd (KRAS G12C) of 72 nM, a Kd (KRAS G12D) of 35 nM and a Kd (KRAS Wild Type) of 65 nM. For the same molecule, the Kd (KRAS G12V) was 41 nM.

`C=C1CN2CCC[C@@]2(COc2nc3c4c(nc(-c5c6c(cc7[nH]ncc57)CCC[C@H]6OC)c(F)c4n2)OC[C@@H]2COCCCN32)C1` (single isomer, unassigned) [Example 57, (8aS)-4-fluoro-5-[(5R*)-5-methoxy-5,6,7,8-tetrahydro-1H-benzo[f]indazol-4-yl]-2-{[(7aS)-2-methylidenetetrahydro-1H-pyrrolizin-7a(5H)-yl]methoxy}-8a,9,12,13-tetrahydro-8H,11H-7,10-dioxa-1,3,6,13a-tetraazanaphtho[1,8-ab]heptalene] showed a Kd (KRAS G12C) of over 1000 nM, a Kd (KRAS G12D) of over 1000 nM and a Kd (KRAS Wild Type) of over 1000 nM. It also gave a Kd (KRAS G12V) of over 1000 nM.

Source: US20250034173A1, “PYRIDO[4,3-D]PYRIMIDINE COMPOUNDS” (PFIZER INC., priority 2023, published 2025)
